The subject of series [1] is Mus musculus. The series is described as follows: Ratio of treated to that of untreated tumor-bearing control animals at 25 mg/kg intraperitoneally in CD2F1 mice was determined. The series is classed as functional. Conditions: route intraperitoneal.
In series [2] the test system is Mus musculus. Description: Toxicity day survivors was determined by the ratio of animals survived to that of test animals at 25 mg/kg intraperitoneally in CD2F1 mice; 6/6. Format: organism-based. The arrangement: dose 25 mg/kg, route intraperitoneal. The following applies: in vivo, ip.
For series [3], the system named is Mus musculus. The series is described as follows: Body weight change of test animals to that of control was determined after injection at 100 mg/kg intraperitoneally in CD2F1 mice. Format: functional. The following applies: route intraperitoneal.
Series [4] concerns Mus musculus. The series is described as follows: Toxicity day survivors was determined by the ratio of animals survived to that of test animals at 100 mg/kg intraperitoneally in CD2F1 mice; 2/6. The series is classed as organism-based. Conditions: in vivo, ip. The arrangement: dose 100 mg/kg, route intraperitoneal.
The test system of series [5] is Mus musculus. Description: Ratio of treated to that of untreated tumor-bearing control animals at 50 mg/kg intraperitoneally in CD2F1 mice was determined. The series is classed as functional. Conditions: route intraperitoneal.
Series [6] has as its system Mus musculus. The series is described as follows: Body weight change of test animals to that of control was determined after injection at 12.5 mg/kg intraperitoneally in CD2F1 mice. The following applies: route intraperitoneal. Format: functional.
In series [7] the test system is Mus musculus. Description: Ratio of treated to that of untreated tumor-bearing control animals at 6.25 mg/kg intraperitoneally in CD2F1 mice was determined. Format: functional. Conditions: route intraperitoneal.
In series [8] the test system is Mus musculus. Description: Ratio of treated to that of untreated tumor-bearing control animals at 12.5 mg/kg intraperitoneally in CD2F1 mice was determined. Conditions: route intraperitoneal. The series is classed as functional.
Series [9] concerns Mus musculus. Description: Net log cell kill was determined after injecting 6.25 mg/kg intraperitoneally in CD2F1 mice. Format: functional. Conditions: route intraperitoneal.
Series [10] relates to Mus musculus. Description: Toxicity day survivors was determined by the ratio of animals survived to that of test animals at 50 mg/kg intraperitoneally in CD2F1 mice; 6/6. The series is classed as organism-based. The arrangement: dose 50 mg/kg, route intraperitoneal. The following applies: in vivo, ip.
Series [11] concerns Mus musculus. Description: Body weight change of test animals to that of control was determined after injection at 50 mg/kg intraperitoneally in CD2F1 mice. Format: functional. The following applies: route intraperitoneal.
The subject of series [12] is Mus musculus. The series is described as follows: Body weight change of test animals to that of control was determined after injection at 25 mg/kg intraperitoneally in CD2F1 mice. The series is classed as functional. Conditions: route intraperitoneal.
Series [13] concerns Mus musculus. The series is described as follows: Net log cell kill was determined after injecting 25 mg/kg intraperitoneally in CD2F1 mice. Format: functional. Conditions: route intraperitoneal.
The test system of series [14] is Mus musculus. Description: Net log cell kill was determined after injecting 12.5 mg/kg intraperitoneally in CD2F1 mice. The series is classed as functional. The following applies: route intraperitoneal.
Series [15] relates to Mus musculus. The series is described as follows: Body weight change of test animals to that of control was determined after injection at 6.25 mg/kg intraperitoneally in CD2F1 mice. Format: functional. Conditions: route intraperitoneal.
In series [16] the test system is Mus musculus. The series is described as follows: Toxicity day survivors was determined by the ratio of animals survived to that of test animals at 12.5 mg/kg intraperitoneally in CD2F1 mice; 6/6. Conditions: in vivo, ip. The arrangement: dose 12.5 mg/kg, route intraperitoneal. Format: organism-based.
For series [17], the system named is Mus musculus. The series is described as follows: Toxicity day survivors was determined by the ratio of animals survived to that of test animals at 6.25 mg/kg intraperitoneally in CD2F1 mice; 6/6. The series is classed as organism-based. Details: dose 6.25 mg/kg, route intraperitoneal. The following applies: in vivo, ip.
In series [18] the test system is Mus musculus. Description: Net log cell kill was determined after injecting 50 mg/kg intraperitoneally in CD2F1 mice. Format: functional. Conditions: route intraperitoneal.
Series [19] has as its system Mus musculus. Description: Toxicity day survivors was determined by the ratio of animals survived to that of test animals at 7.5 mg/kg intraperitoneally in CD2F1 mice; 6/6. Format: organism-based. The arrangement: dose 7.5 mg/kg, route intraperitoneal. Conditions: in vivo, ip.
The test system of series [20] is Mus musculus. The series is described as follows: Toxicity day survivors was determined by the ratio of animals survived to that of test animals at 1.88 mg/kg intraperitoneally in CD2F1 mice; 6/6. The following applies: in vivo, ip. Details: dose 1.88 mg/kg, route intraperitoneal. Format: organism-based.
The test system of series [21] is Mus musculus. Description: Net log cell kill was determined after injecting 7.5 mg/kg intraperitoneally in CD2F1 mice. The series is classed as functional. Conditions: route intraperitoneal.
Series [22] has as its system Mus musculus. The series is described as follows: Toxicity day survivors was determined by the ratio of animals survived to that of test animals at 30 mg/kg intraperitoneally in CD2F1 mice; 4/6. Format: organism-based. Conditions: in vivo, ip. Details: dose 30 mg/kg, route intraperitoneal.
In series [23] the test system is Mus musculus. Description: Toxicity day survivors was determined by the ratio of animals survived to that of test animals at 15 mg/kg intraperitoneally in CD2F1 mice; 5/5. Format: organism-based. The arrangement: dose 15 mg/kg, route intraperitoneal. The following applies: in vivo, ip.
The subject of series [24] is Mus musculus. Description: Net log cell kill was determined after injecting 1.88 mg/kg intraperitoneally in CD2F1 mice. Format: functional. The following applies: route intraperitoneal.
For series [25], the system named is Mus musculus. The series is described as follows: Body weight change of test animals to that of control was determined after injection at 30 mg/kg intraperitoneally in CD2F1 mice. Format: functional. Conditions: route intraperitoneal.
In series [26] the test system is Mus musculus. Description: Body weight change of test animals to that of control was determined after injection at 60 mg/kg intraperitoneally in CD2F1 mice. Conditions: route intraperitoneal. Format: functional.
For series [27], the system named is Mus musculus. The series is described as follows: Ratio of treated to that of untreated tumor-bearing control animals at 3.75 mg/kg intraperitoneally in CD2F1 mice was determined. Conditions: route intraperitoneal. The series is classed as functional.
For series [28], the system named is Mus musculus. Description: Body weight change of test animals to that of control was determined after injection at 7.5 mg/kg intraperitoneally in CD2F1 mice. The following applies: route intraperitoneal. Format: functional.
For series [29], the system named is Mus musculus. Description: Toxicity day survivors was determined by the ratio of animals survived to that of test animals at 60 mg/kg intraperitoneally in CD2F1 mice; 4/6. The arrangement: dose 60 mg/kg, route intraperitoneal. The following applies: in vivo, ip. Format: organism-based.
Series [30] deals with Mus musculus. The series is described as follows: Body weight change of test animals to that of control was determined after injection at 3.75 mg/kg intraperitoneally in CD2F1 mice. Format: functional. The following applies: route intraperitoneal.
Series [31] has as its system Mus musculus. The series is described as follows: Toxicity day survivors was determined by the ratio of animals survived to that of test animals at 3.75 mg/kg intraperitoneally in CD2F1 mice; 6/6. The series is classed as organism-based. The arrangement: dose 3.75 mg/kg, route intraperitoneal. Conditions: in vivo, ip.
For series [32], the system named is Mus musculus. Description: Ratio of treated to that of untreated tumor-bearing control animals at 7.5 mg/kg intraperitoneally in CD2F1 mice was determined. Format: functional. The following applies: route intraperitoneal.
The subject of series [33] is Mus musculus. The series is described as follows: Body weight change of test animals to that of control was determined after injection at 15 mg/kg intraperitoneally in CD2F1 mice. Format: functional. Conditions: route intraperitoneal.
Series [34] relates to Mus musculus. Description: Net log cell kill was determined after injecting 15 mg/kg intraperitoneally in CD2F1 mice. The series is classed as functional. Conditions: route intraperitoneal.
Series [35] has as its system Mus musculus. Description: Body weight change of test animals to that of control was determined after injection at 1.88 mg/kg intraperitoneally in CD2F1 mice. Format: functional. Conditions: route intraperitoneal.
In series [36] the test system is Mus musculus. The series is described as follows: Ratio of treated to that of untreated tumor-bearing control animals at 1.88 mg/kg intraperitoneally in CD2F1 mice was determined. Format: functional. The following applies: route intraperitoneal.
Series [37] has as its system Mus musculus. Description: Ratio of treated to that of untreated tumor-bearing control animals at 15 mg/kg intraperitoneally in CD2F1 mice was determined. Format: functional. The following applies: route intraperitoneal.
Series [38] has as its system Mus musculus. The series is described as follows: Net log cell kill was determined after injecting 3.75 mg/kg intraperitoneally in CD2F1 mice. The following applies: route intraperitoneal. The series is classed as functional.

Take `Cc1c(COC(=O)NC(C)C)c(COC(=O)NC(C)C)c2n1CCc1ccccc1-2`: the T/C (in general, the ratio of treated to control) is given as 166% in the series with Mus musculus [1], 174% with Mus musculus [5], 153% in the series on Mus musculus [7] and 157% in the series with Mus musculus [8]. For the same compound, the TDS in the series with Mus musculus [2] turned out to be 6; in the series with Mus musculus [4], 2; in the series on Mus musculus [10] it was 6; with Mus musculus [16], 6; in the series on Mus musculus [17], 6. Besides, the T-C with Mus musculus [3] is recorded as -3.8 g; in the series with Mus musculus [6], -2.6 g; in the series with Mus musculus [11] it was -4 g; in the series on Mus musculus [12] it was -4.2 g; in the series on Mus musculus [15], -0.9 g. Further, the KE in the series with Mus musculus [9] turned out to be 1.28; in the series on Mus musculus [13], 2.24; with Mus musculus [14], 1.6; with Mus musculus [18], 2.82.

With `COc1ccc2c(c1)CCn1cc(COC(=O)NC(C)C)c(COC(=O)NC(C)C)c1-2`, the TDS in the series on Mus musculus [19] is on record as 6; with Mus musculus [20], 6; in the series with Mus musculus [22], 4; in the series on Mus musculus [23], 5; in the series on Mus musculus [29], 4; in the series on Mus musculus [31], 6. The KE with Mus musculus [21] is listed as 5.83; in the series on Mus musculus [24], 2.18; with Mus musculus [34], -1.07; in the series on Mus musculus [38], 3.46. In addition, the T-C with Mus musculus [25] is given as -3.1 g; in the series on Mus musculus [26], -4.6 g; in the series on Mus musculus [28], -4.8 g; in the series with Mus musculus [30], -3.4 g; in the series on Mus musculus [33] it was -3 g; with Mus musculus [35], -1.8 g. Further, the T/C was found to be 194% with Mus musculus [27], 232% in the series on Mus musculus [32], 174% in the series on Mus musculus [36] and 125% in the series with Mus musculus [37].

Source of the values: ChEMBL document CHEMBL1124001, “Synthesis and antileukemic activity of bis[[(carbamoyl)oxy]methyl]- substituted pyrrolo[2,1-a]isoquinolines, pyrrolo[1,2-a]quinolines, pyrrolo[2,1-a]isobenzazepines, and pyrrolo[1,2-a]benzazepines” (J Med Chem, 1988).
